Experimental data published in patent publication US20210145842A1, “NEW THERAPEUTIC USES” (NOVARTIS AG, priority 2018, published 2021).
Where “and” joins values, the source holds several entries; their conditions need not be identical. Identical values can stand only once. Like-named read-outs stand apart in the source and are kept apart here.

Legend:
patients [1] = settings: human, in vivo; cited from earlier work
patients with NSCLC = settings: in vivo; cited from earlier work
[2] = system: patients with EGFR T790M+ NSCLC; settings: cited from earlier work; for hazard ratio for PFS: 95% CI
[3] = system: patients with EGFR mutant NSCLC; settings: cited from earlier work
[4] = system: patients with EGFR T790M-mutant NSCLC who were third-generation EGFR TKI naïve
Method: Patients were screened for eligibility across six subgroups according to EGFR mutation status and prior therapy, and treated with nazartinib 75-350 mg (capsule or tablet formulation) orally, once daily (QD), on a continuous 28-day dosing schedule. The primary objective of the Phase I part was to determine the maximum tolerated dose and/or recommended Phase II dose (RP2D).
This was a Phase I/II, multicenter, open-label study of nazartinib in patients with locally advanced/metastatic EGFR-mutant NSCLC.
Nazartinib was administered orally, once daily (QD), on a continuous, 28-day cycle dosing schedule. The starting dose for the Phase I part was 75 mg in capsule formulation. Nazartinib in tablet formulation was also introduced during Phase I. Patients were treated across the following QD dose groups: 75 mg, 100 mg, 150 mg, 200 mg, 225 mg, 300 mg, and 350 mg. Initial cohorts consisted of 1-6 patients.
Patients treated with capsule or with tablet at the same dose level were pooled together into a single treatment group for safety and efficacy analyses. The Full Analysis Set (FAS) consists of all patients who received ≥1 dose of the study drug. Efficacy analyses were performed on all patients in the FAS who had baseline and post-baseline tumor assessment data or who had discontinued prior to post-baseline tumor assessment, and excluded patients with tumors that were wild-type at EGFR T790 or who had received prior third-generation EGFR TKIs, unless otherwise noted.
Duration of response (DoR) and PFS were described using the Kaplan-Meier method.

[5] = Distribution of nazartinib to the brain in a preclinical model; format: in vivo
[6] = system: patients with advanced EGFR-mutant NSCLC harbouring activating EGFR L858R and/or ex19del mutations
[7] = system: EGFR mutant (L858R, ex19del and T790M) cancer models; settings: cited from earlier work
[8] = system: patients with metastatic NSCLC containing EGFR ex19del or L858R substitution mutations; settings: EURTAC; erlotinib 150 mg once daily; cited from earlier work
patients [9] = settings: pooled analysis; cited from earlier work
[10] = Brain metastases absent at baseline, 14 evaluable patients, preliminary data
[11] = Brain metastases present at baseline, 10 evaluable patients, preliminary data

COc1cc2ncnc(Nc3ccc(F)c(Cl)c3)c2cc1OCCCN1CCOCC1 [gefitinib]
patients who stopped therapy due to an adverse drug reaction (patients [1]): Approximately 3% | patients with a severe adverse drug reaction (grade 3 or 4) (patients [1]): Approximately 8% | PFS obtained following treatment (patients with NSCLC): 9.5 months

C=CC(=O)Nc1cc(Nc2nccc(-c3cn(C)c4ccccc34)n2)c(OC)cc1N(C)CCN(C)C [osimertinib]
median duration of response ([2]; AURA3): 9.7 month | median PFS ([2]; osimertinib arm of AURA3): 10.1 months | hazard ratio for PFS ([2]; overall population, 0.23-0.41): 0.30 | hazard ratio for PFS ([2]; patients with CNS metastases, 0.21-0.49): 0.32 | investigator reported median progression-free survival ([3]; FLAURA first-line): 18.9 months | median duration of response ([3]; FLAURA first-line): 17.2 months | objective response rate (ORR) ([3]; FLAURA first-line): 80% | adverse event: diarrhea ([3]; any cause): 58% | adverse event: dry skin ([3]; any cause): 36% | adverse event: rash or acne ([3]; any cause): 58% | AEs of grade 3 or higher ([3]; in vivo): 34% | survival rate at 18 months ([3]; interim analysis): 83% | HR for disease progression or death ([3]; osimertinib vs standard EGFR-TKIs, 95% CI 0.37 to 0.57, P<0.001): 0.46 | hazard ratio for death ([3]; osimertinib vs standard EGFR-TKIs, 95% CI, 0.45 to 0.88, P=0.007): 0.63 | odds ratio for ORR ([3]; osimertinib vs standard EGFR-TKIs, 95% CI, 0.85 to 1.90, P=0.24): 1.27 | PFS obtained following treatment (patients with NSCLC): 10.2 months

Cc1cc(C(=O)Nc2nc3cccc(Cl)c3n2[C@@H]2CCCCN(C(=O)/C=C/CN(C)C)C2)ccn1 [nazartinib, (R,E)-N-(7-chloro-1-(1-(4-(dimethylamino)but-2-enoyl)azepan-3-yl)-1H-benzo [d]imidazol-2-yl)-2-methylisonicotinamide]
Among patients who progressed: Both A and B (A: progression in brain, B: outside of brain, at first PD) ([4]; 75 mg QD, N = 12): 1 patients | Among patients who progressed: Only A, not B (A: progression in brain, B: outside of brain, at first PD) ([4]; 75 mg QD, N = 12): 1 patients | Among patients with baseline brain metastasis who progressed: Both A and B (A: progression in brain, B: outside of brain, at first PD) ([4]; 100 mg QD, N = 34): 2 patients | Among patients with baseline brain metastasis who progressed: Only A, not B (A: progression in brain, B: outside of brain, at first PD) ([4]; 100 mg QD, N = 34): 1 patients | Best response of brain non-target lesions: Absent/normalized ([4]; 100 mg QD, N = 34): 1 patients | ORR ([4]; 150 mg QD dose level): 46% | Best response of brain non-target lesions: Absent/normalized ([4]; 150 mg QD, N = 68): 3 patients | Among patients who progressed: Only A, not B (A: progression in brain, B: outside of brain, at first PD) ([4]; 200 mg QD, N = 8): 1 patients | Among patients who progressed: Only B, not A (A: progression in brain, B: outside of brain, at first PD) ([4]; 200 mg QD, N = 8): 6 patients | HBV reactivation leading to hepatic failure and death ([4]; 225 mg QD): one | Among patients who progressed: Only B, not A (A: progression in brain, B: outside of brain, at first PD) ([4]; 225 mg QD, N = 24): 16 patients | Among patients with baseline brain metastasis who progressed: Only A, not B (A: progression in brain, B: outside of brain, at first PD) ([4]; 225 mg QD, N = 24): 1 patients | Among patients with baseline brain metastasis who progressed: Only B, not A (A: progression in brain, B: outside of brain, at first PD) ([4]; 225 mg QD, N = 24): 6 patients | Best response of brain non-target lesions: Absent/normalized ([4]; 225 mg QD, N = 24): 3 patients | best overall response rate across doses ([4]; 162 evaluable patients with EGFR T790M-positive tumors naïve to third-generation EGFR TKIs, 95% CI: 43-59): 51% | Among patients with baseline brain metastasis who progressed: Only A, not B (A: progression in brain, B: outside of brain, at first PD) ([4]; All patients, N = 162): five | Best response of brain non-target lesions: Absent/normalized ([4]; All patients, N = 162): 16% and 14% | median duration of response ([4]; across doses, EGFR T790M-positive, third-generation EGFR TKI naïve): 11.0 months | median progression-free survival (PFS) ([4]; across doses, 95% CI: 7.3-11.1): 9.1 months | most common adverse events ([4]; human, in vivo): rash, diarrhea, and pruritus | overall disease control rate (DCR) ([4]; patients with EGFR T790M-positive tumors naïve to third-generation EGFR TKIs): 89% and 87% | brain metastases at first post-baseline evaluation (single case) ([4]; person, EGFR ex19del/T790M NSCLC, numerous small brain metastases at baseline): no longer radiologically detectable | duration of overall partial response (single case) ([4]; person, EGFR ex19del/T790M NSCLC, numerous small brain metastases at baseline, no prior local therapy to the brain): 11.1 months | distribution to the brain [5]: minimal | 6-month duration of response rate (DoR) ([6]; 150 mg once daily): 91% | 6-month overall survival rate ([6]; 150 mg once daily): 95% | 6-month progression-free survival rate ([6]; 150 mg once daily): 83% | disease control rate ([6]; 150 mg once daily): 93% | patients who achieved complete response ([6]; 150 mg once daily, 45 patients): One | ORR per RECIST v1.1 by BICR ([6]; 150 mg once daily, 45 patients, 95% CI 49%-78%): 64% | patients who demonstrated a response ([6]; 150 mg once daily, of 45 patients): Twenty-nine | Best overall response per BIRC: Progressive disease (PD) [6, 10]: 0 patients | Disease control rate (CR + PR + SD + NCRNPD) per BIRC [6, 10]: 14 patients | Overall response rate per BIRC [6, 10]: 11 patients | Best overall response per BIRC: Complete response (CR) [6, 11]: 0 patients | Best overall response per BIRC: Non-CR/non-PD (NCRNPD) [6, 11]: 0 patients | Disease control rate (CR + PR + SD + NCRNPD) per BIRC [6, 11]: 9 patients | Overall response rate per BIRC [6, 11]: 5 patients | patients who developed a new brain metastasis on study ([6]; of the 27 patients without baseline brain metastasis): One | responses ongoing at data cutoff ([6]; of the 29 responding patients, cutoff 22 Mar. 2018): 27 patients | brain post-baseline scan versus baseline by BIRC (single case) ([6]; person, Cycle 5 Day 1 (study day 113), no prior treatment for brain metastases): complete normalization of brain lesion | anti-tumor efficacy ([7]; several xenograft models): Dose-dependent anti-tumor efficacy | tolerability, body weight ([7]; xenograft models, efficacious doses): well tolerated with no body weight loss

C#Cc1cccc(Nc2ncnc3cc(OCCOC)c(OCCOC)cc23)c1 [erlotinib]
median PFS as assessed by the investigator [8]: 9.7 months | ILD occurrence (patients [9]): 1.1% | PFS obtained following treatment (patients with NSCLC): 9.7 months
